Assay results taken from patent US20190105337A1, “METHODS OF TREATING BACTERIAL INFECTIONS” (priority 2015, published 2019).
Values after ≈ are worked out from the molar mass of the structure shown. Where two headings read alike, the source gives them in different places.

Assays:
[1] = cited from earlier work
[2] = system: P. aeruginosa strains; assay type: cell-based, Pseudomonas aeruginosa
Protocol: The pharmacokinetics simulation was based on data from the clinical study disclosed in Example 2.
In Vitro PK-PD Model: Six medium sized hollow-fiber cartridges (FiberCell Systems) were used per experiment. Three strains studied in duplicate were used for each experiment. Log-phase cells were inoculated and incubated for 2 hours prior to the start of treatment to achieve about 10^8 CFU/mL. Target PK parameters are listed in Tables E and F. The exposures were based on the published literatures disclosed in Example 2. Samples were collected from the central compartment for the determination of drug concentrations over a 32 hour period and were analyzed using an LC-MS/MS method.

[3] = clinical; conditions: human, in vivo
[4] = system: P. aeruginosa strains; test: MIC by broth microdilution (CLSI), P. aeruginosa strains; assay type: cell-based; conditions: Pseudomonas aeruginosa

SMILES: C[C@@H](O)[C@H]1C(=O)N2C(C(=O)O)=C(S[C@@H]3CN[C@H](C(=O)N(C)C)C3)[C@H](C)[C@H]12 [meropenem, Meropenem]
- mean meropenem ELF concentration ([1]; 500 mg dose, 1 hour): 5.3 µg/mL
- mean meropenem ELF concentration ([1]; 500 mg dose, 2 hours): 2.7 µg/mL
- mean meropenem ELF concentration ([1]; 500 mg dose, 3 hours): 1.9 µg/mL
- mean meropenem ELF concentration ([1]; 500 mg dose, 5 hours): 0.7 µg/mL
- mean meropenem ELF concentration ([1]; 500 mg dose, 8 hours): 0.2 µg/mL
- intrapulmonary penetration based on AUC0-8 of ELF and total plasma ([1]; 500 mg dose): approximately 43%
- mean meropenem ELF concentration ([1]; 1 gram dose, 1 hour): 7.7 µg/mL
- mean meropenem ELF concentration ([1]; 1 gram dose, 2 hours): 4.0 µg/mL
- mean meropenem ELF concentration ([1]; 1 gram dose, 3 hours): 1.7 µg/mL
- mean meropenem ELF concentration ([1]; 1 gram dose, 5 hours): 0.8 µg/mL
- mean meropenem ELF concentration ([1]; 1 gram dose, 8 hours): 0.03 µg/mL
- intrapulmonary penetration based on AUC0-8 of ELF and total plasma ([1]; 1 gram dose): ~28%
- mean meropenem ELF concentration ([1]; 2 gram dose, 1-hour sampling time): 2.9 µg/mL
- mean meropenem ELF concentration ([1]; 2 gram dose, 3-hour sampling time): 2.8 µg/mL
- efficacy, number of strains [2]: effective against 2 out of 3 strains
- Change in Log CFU over 32 hours ([2]; P. aeruginosa PAM3377, human equivalent 2 g q8h by 3 hour infusion): 3.7 Log CFU
- AUC ([3]; Meropenem exposure (AUC)): 211 µg·h/mL
- clearance ([3]; weight adjusted clearance (Cl)): 2.33 mL/min/kg
- MIC ([4]; P. aeruginosa PAM3210, read-out: MIC): 2 µg/mL (≈ 5.22 µM)
- MIC ([4]; P. aeruginosa PAM3353, read-out: MIC): 8 µg/mL (≈ 20.9 µM)
- MIC ([4]; P. aeruginosa PAM3377, read-out: MIC): 4 to 8 µg/mL (≈ 10.4 to 20.9 µM)
- MIC ([4]; read-out: Meropenem (w/ 8 mg/L Compound I) MIC, P. aeruginosa PAM3210, w/ 8 mg/L Compound I): 2 µg/mL (≈ 5.22 µM)
- MIC ([4]; read-out: Meropenem (w/ 8 mg/L Compound I) MIC, P. aeruginosa PAM3353, w/ 8 mg/L Compound I): 8 µg/mL (≈ 20.9 µM)
- MIC ([4]; read-out: Meropenem (w/ 8 mg/L Compound I) MIC, P. aeruginosa PAM3377, w/ 8 mg/L Compound I): 4 to 8 µg/mL (≈ 10.4 to 20.9 µM)
- MIC ([4]; read-out: Meropenem MIC, P. aeruginosa PAM3210): 2 µg/mL (≈ 5.22 µM)
- MIC ([4]; read-out: Meropenem MIC, P. aeruginosa PAM3353): 8 µg/mL (≈ 20.9 µM)
- MIC ([4]; read-out: Meropenem MIC, P. aeruginosa PAM3377): 4 to 8 µg/mL (≈ 10.4 to 20.9 µM)
